From patent EP4707284A1, “HETEROCYCLIC COMPOUND AND USE THEREOF” (Otsuka Pharmaceutical Co., Ltd., priority 2023, dated 2024)

format: physicochemical; details: Tris-hydrochloric acid buffer (pH 7.5) 50 mmol/L, magnesium chloride 5 mmol/L, evaluation compound 1 µmol/L, 37°C, 60 minutes, average of duplicate
Experimental: The conversion from the evaluation compounds to brexpiprazole in a buffer (i.e., the stability of the evaluation compounds) was evaluated.
The Example 1 compound was dissolved in acetonitrile/water (1:1, v/v) to 10 mmol/L and further diluted with acetonitrile/water (1:1, v/v) to 100 µmol/L for use.
The other Example compounds and the Reference Example 5 compound to Reference Example 7 compound were each dissolved in DMSO to 10 mmol/L and further diluted with acetonitrile to 100 µmol/L for use, except for the following compounds.
The compounds of Examples 52, 95, 96, 117, and 130 (EX 52, EX 95, EX 96, EX 117, and EX 130) were dissolved in acetonitrile/water (8:2, v/v) to 10 mmol/L and further diluted with acetonitrile to 100 µmol/L for use.
The compound of Example 97 (EX 97) was dissolved in acetonitrile/water (8:2, v/v) to 10 mmol/L and further diluted with acetonitrile/water (8:2, v/v) to 100 µmol/L for use.
The compounds of Examples 15 and 116 (EX 15 and EX 116) were dissolved in DMSO to 1 mmol/L and further diluted with acetonitrile to 100 µmol/L for use.
These evaluation compound solutions were prepared at the time of use.
The reaction was conducted by preparing each reaction solution such that the final concentration of each component was as follows. The test was conducted in duplicate.
For the compounds of Examples 1 to 8, 10 to 19, 26 to 27, 37, 50, 87 to 89, 91, 116, 121, 123, 150, and 151 (EX 1 to EX 8, EX 10 to EX 19, EX 26 to EX 27, EX 37, EX 50, EX 87 to EX 89, EX 91, EX 116, EX 121, EX 123, EX 150, and EX 151), and the compounds of Reference Examples 5 to 7 (REX 5 to REX 7), the reaction solution without the evaluation compound (198 µl) was pre-incubated at 37°C for 3 minutes, and then each of the evaluation compound solutions (2 µl) was added and stirred; thereafter, the reaction was started at 37°C. At 0 minutes or 60 minutes after the start of the reaction, the reaction was stopped by adding and stirring a reaction stop solution (1000 µl) composed of acetonitrile/isopropanol (4:1, v/v) containing internal standard substances. However, the 0-minute reaction sample (198 µl) was prepared by adding the evaluation compound (2 µl) after adding the reaction stop solution (1000 µl). The samples after stopping the reaction were used as the measurement samples. Calibration curve samples with the same composition were prepared (final concentrations of the evaluation compounds and brexpiprazole: 0.01, 0.1, and 1 µmol/L, with the proviso that for the evaluation compounds only, the 0-minute reaction samples were also used as calibration curve samples for 1 µmol/L).
For the compounds of Examples 24 to 25, 28 to 29, 32 to 36, 40 to 49, 51 to 60, 62 to 64, 66 to 77, 80 to 86, 90, 92 to 111, 113, 115, 117 to 120, 122, 124 to 130, 132 to 147, and 152 to 160 (EX 24 to EX 25, EX 28 to EX 29, EX 32 to EX 36, EX 40 to EX 49, EX 51 to EX 60, EX 62 to EX 64, EX 66 to EX 77, EX 80 to EX 86, EX 90, EX 92 to EX 111, EX 113, EX 115, EX 117 to EX 120, EX 122, EX 124 to EX 130, EX 132 to EX 147, and EX 152 to EX 160), the reaction solution without the evaluation compound (148.5 µl) was pre-incubated at 37°C for 3 minutes, and then each of the evaluation compound solutions (1.5 µl) was added and stirred; thereafter, the reaction was started at 37°C. At 0 minutes or 60 minutes after the start of the reaction, the reaction was stopped by adding and stirring a reaction stop solution (600 µl) composed of acetonitrile/isopropanol (4:1, v/v) containing internal standard substances. However, the 0-minute reaction sample (148.5 µl) was prepared by adding the evaluation compound (1.5 µl) after adding the reaction stop solution (600 µl). The samples after stopping the reaction were used as the measurement samples. […]

Row | Compound | Concentration of brexpiprazole formed | Concentration of evaluation compound decreased
1 | O=c1ccc2ccc(OCCCC[N+]3(COP(=O)([O-])O)CCN(c4cccc5sccc45)CC3)cc2[nH]1 [EX 1, (4-(benzo[b]thiophen-4-yl)-1-((4-((2-oxo-1,2-dihydroquinolin-7-yl)oxy)butyl)piperazin-1-ium-1-yl)methyl hydrogen phosphate] | 0 nM | 0 nM
2 | O=c1ccc2ccc(OCCCC[N+]3(COP(=O)([O-])OCCCCO)CCN(c4cccc5sccc45)CC3)cc2[nH]1 [EX 10, (4-(benzo[b]thiophen-4-yl)-1-(4-((2-oxo-1,2-dihydroquinolin-7-yl)oxy)butyl)piperazin-1-ium-1-yl)methyl (4-hydroxybutyl) phosphate] | 0 nM | -20 nM
3 | O=c1ccc2ccc(OCCCC[N+]3(COP(=O)([O-])OCCCCCCCCO)CCN(c4cccc5sccc45)CC3)cc2[nH]1 [EX 11, (4-(benzo[b]thiophen-4-yl)-1-(4-((2-oxo-1,2-dihydroquinolin-7-yl)oxy)butyl)piperazin-1-ium-1-yl)methyl (8-hydroxyoctyl) phosphate] | 0 nM | 30 nM
4 | COCCOP(=O)([O-])OC[N+]1(CCCCOc2ccc3ccc(=O)[nH]c3c2)CCN(c2cccc3sccc23)CC1 [EX 12, (4-(benzo[b]thiophen-4-yl)-1-(4-((2-oxo-1,2-dihydroquinolin-7-yl)oxy)butyl)piperazin-1-ium-1-yl)methyl (2-methoxyethyl) phosphate] | 0 nM | 20 nM
5 | CC(C)C(=O)OCOP(=O)([O-])OC[N+]1(CCCCOc2ccc3ccc(=O)[nH]c3c2)CCN(c2cccc3sccc23)CC1 [EX 24] | 0 nM | -110 nM
6 | CC(C)(C)C(=O)OCOP(=O)([O-])OC[N+]1(CCCCOc2ccc3ccc(=O)[nH]c3c2)CCN(c2cccc3sccc23)CC1 [EX 25] | 0 nM | -10 nM
7 | CCCCCCCC(=O)OC(C)OP(=O)([O-])OC[N+]1(CCCCOc2ccc3ccc(=O)[nH]c3c2)CCN(c2cccc3sccc23)CC1 (stereo not shown) [EX 26] | 0 nM | 50 nM
8 | CCCCCCCC(=O)OCOP(=O)([O-])OC[N+]1(CCCCOc2ccc3ccc(=O)[nH]c3c2)CCN(c2cccc3sccc23)CC1 [EX 27] | 0 nM | 0 nM
9 | COCCC(=O)OCOP(=O)([O-])OC[N+]1(CCCCOc2ccc3ccc(=O)[nH]c3c2)CCN(c2cccc3sccc23)CC1 [EX 28] | -10 nM | -70 nM
10 | CCOCCC(=O)OCOP(=O)([O-])OC[N+]1(CCCCOc2ccc3ccc(=O)[nH]c3c2)CCN(c2cccc3sccc23)CC1 [EX 29] | 0 nM | -10 nM
11 | CCOC(=O)CC(C)(C)CC(=O)OCOP(=O)([O-])OC[N+]1(CCCCOc2ccc3ccc(=O)[nH]c3c2)CCN(c2cccc3sccc23)CC1 [EX 32] | 0 nM | 10 nM
12 | COCCOC(=O)OCOP(=O)([O-])OC[N+]1(CCCCOc2ccc3ccc(=O)[nH]c3c2)CCN(c2cccc3sccc23)CC1 [EX 33] | 0 nM | 0 nM
13 | COCCOCCOC(=O)OCOP(=O)([O-])OC[N+]1(CCCCOc2ccc3ccc(=O)[nH]c3c2)CCN(c2cccc3sccc23)CC1 [EX 34] | 0 nM | 10 nM
14 | COCCOCCOCCOC(=O)OCOP(=O)([O-])OC[N+]1(CCCCOc2ccc3ccc(=O)[nH]c3c2)CCN(c2cccc3sccc23)CC1 [EX 35] | 0 nM | -20 nM
15 | COCCCCOC(=O)OCOP(=O)([O-])OC[N+]1(CCCCOc2ccc3ccc(=O)[nH]c3c2)CCN(c2cccc3sccc23)CC1 [EX 36] | 0 nM | -40 nM
16 | CCCCCCCCOP(=O)([O-])OC[N+]1(CCCCOc2ccc3ccc(=O)[nH]c3c2)CCN(c2cccc3sccc23)CC1 [EX 37] | 0 nM | 60 nM
17 | CC(O)CCOP(=O)([O-])OC[N+]1(CCCCOc2ccc3ccc(=O)[nH]c3c2)CCN(c2cccc3sccc23)CC1 (stereo not shown) [EX 40] | 0 nM | 60 nM
18 | CC(C)(O)CCOP(=O)([O-])OC[N+]1(CCCCOc2ccc3ccc(=O)[nH]c3c2)CCN(c2cccc3sccc23)CC1 [EX 41] | 0 nM | 70 nM
19 | O=c1ccc2ccc(OCCCC[N+]3(COP(=O)([O-])OC/C=C/CO)CCN(c4cccc5sccc45)CC3)cc2[nH]1 [EX 42] | 0 nM | 30 nM

Next, values leading:

Row | Concentration of brexpiprazole formed | Concentration of evaluation compound decreased | Compound
20 | 0 nM | 120 nM | O=c1ccc2ccc(OCCCC[N+]3(COP(=O)([O-])OC/C=C\CO)CCN(c4cccc5sccc45)CC3)cc2[nH]1 [EX 43]
21 | 0 nM | -50 nM | O=c1ccc2ccc(OCCCC[N+]3(COP(=O)([O-])OCCCCCCO)CCN(c4cccc5sccc45)CC3)cc2[nH]1 [EX 44]
22 | 0 nM | 70 nM | O=c1ccc2ccc(OCCCC[N+]3(COP(=O)([O-])OCCCCCCCO)CCN(c4cccc5sccc45)CC3)cc2[nH]1 [EX 45]
23 | 0 nM | 40 nM | O=c1ccc2ccc(OCCCC[N+]3(COP(=O)([O-])OCCCCCCCCCO)CCN(c4cccc5sccc45)CC3)cc2[nH]1 [EX 46]
24 | 0 nM | 0 nM | O=c1ccc2ccc(OCCCC[N+]3(COP(=O)([O-])OCC4(CO)CC4)CCN(c4cccc5sccc45)CC3)cc2[nH]1 [EX 47]
25 | 0 nM | -30 nM | CC(C)(CO)COP(=O)([O-])OC[N+]1(CCCCOc2ccc3ccc(=O)[nH]c3c2)CCN(c2cccc3sccc23)CC1 [EX 48]
26 | 0 nM | 50 nM | COCCCOP(=O)([O-])OC[N+]1(CCCCOc2ccc3ccc(=O)[nH]c3c2)CCN(c2cccc3sccc23)CC1 [EX 49]
27 | 0 nM | 10 nM | COCCCCOP(=O)([O-])OC[N+]1(CCCCOc2ccc3ccc(=O)[nH]c3c2)CCN(c2cccc3sccc23)CC1 [EX 50]
28 | 0 nM | 50 nM | CC(C)COCCOP(=O)([O-])OC[N+]1(CCCCOc2ccc3ccc(=O)[nH]c3c2)CCN(c2cccc3sccc23)CC1 [EX 51]
29 | 0 nM | -40 nM | O=c1ccc2ccc(OCCCC[N+]3(COP(=O)([O-])OCCOCC4CC4)CCN(c4cccc5sccc45)CC3)cc2[nH]1 [EX 52]
